Test results as given in patent US20020187945A1, “Modulation of immune response by ribavirin” (priority 1999, published 2002).

Assays:
B7-2 [1] = assay: B7-2 mRNA (RT-PCR) in human PBMCs with B7-inducing cytokines; format: cell-based
From the text: (§1) The differential effect by ribavirin on B7-1 and B7-2 expression as observed in the two mouse strains was examined in human peripheral blood mononuclear cells (PBMCs). Here we used three cytokines, IFNα, IFNβ, and TNFα to induce B7-1 and B7-2 expression. […] Two distinct outcomes were observed.

B7-2 [2] = assay: B7-2 expression by FACS in IFNα-treated splenocytes from unstimulated mice; format: cell-based, mouse; conditions: with IFNα
From the text: (§2) We determined the levels of […] and B7-2 by FACS analysis from IFNα-treated splenocytes from unstimulated BALB/c and C57B6 mice in order to determine whether the effect of ribavirin on the functional role of B7-1 and […] was a) inducible in resting, unstimulated lymphocytes, b) required the action of a B7 inducer such as IFNα, or c) elicited the same affects on the two mouse strains upon replacing antigen stimulation with a B7 inducer. […] In contrast, in C57BL/6 splenocytes (bottom panel), IFNα-induced B7-1 expression was enhanced by ribavirin but B7-2 expression was unaffected.

B7-2 mRNA = B7-2 mRNA (RT-PCR/Southern) in lymph node cells of ribavirin-treated CHS mice; format: in vivo, mouse; conditions: FIG. 5
Method: (§3) To determine the effect of ribavirin on the functional role of B7-1 and B7-2 on contact hypersensitivity (CHS) responses, we measured B7-1 and B7-2 mRNA levels in RNA isolated from the lymph node cells of the animals used in the above CHS experiments. Following RT-PCR with specific primers, electrophoresis and Southern blotting, PCR products were analyzed by hybridization with 32P-labeled specific probes. […] In contrast, in C57BL/6 mice, B7-1 mRNA expression was enhanced by ribavirin, but B7-2 mRNA expression was unaffected.

B7-1 mRNA = B7-1 mRNA (RT-PCR/Southern) in lymph node cells of ribavirin-treated CHS mice; format: in vivo, mouse; conditions: FIG. 5
Method: as §3

B7-1 [3] = assay: B7-1 expression by FACS in IFNα-treated splenocytes from unstimulated mice; format: cell-based, mouse; conditions: C57BL/6 splenocytes, with IFNα, FIG. 6 bottom panel
From the text: as §2

B7-1 [4] = assay: B7-1 expression by FACS in lymph node cells from DNFB-primed mice, in vitro anti-αβ TCR challenge; format: cell-based, mouse; conditions: C57BL/6 lymph node cells, ribavirin 5 μM, FIG. 3 bottom panel
Method: (§4) The effect of ribavirin on B7-1 expression and B7-2 expression, at the time of challenge, in lymph node cells isolated from Ag-primed BALBc and C57BL/6 mice was examined. Mice were primed epicutaneously with dinitrofluorobenzene (DNFB) 6 days prior to concomitant ribavirin treatment (5 μM) and in vitro challenge using an immobilized anti-αβ TCR antibody. Unexpectedly, we observed opposing effects of ribavirin on DNFB-induced B7-1 expression and B7-2 expression in these two mouse strains.

B7-2 [5] = assay: B7-2 expression by FACS in lymph node cells from DNFB-primed mice, in vitro anti-αβ TCR challenge; format: cell-based, mouse; conditions: BALB/c lymph node cells, ribavirin 5 μM, FIG. 3 top panel
Method: as §4

BALB/c and C57BL/6 mice = assay: Contact hypersensitivity (CHS) ear response to DNFB in mice; format: in vivo, mouse; conditions: 0.5 mg/kg i.p. at challenge, 24 hours after challenge, FIG. 4
Method: The functional effect of this differential effect on B7-1 and B7-2 mediated by RIB was examined in an in vivo murine model of contact hypersensitivity, and a B7-2 dependent immune response (Eur. J. Immunol, 1996. 26: 880-885). Briefly, animals were primed with 2,4-dinitro-1-fluorobenzene (DNFB) (0.3%) epicutaneously on the abdomen and challenged 6 days later on each ear with 0.12% DNFB. Ribavirin-treated animals were injected intraperitoneally at the time of challenge with an optimal dose of 0.5 mg/kg in 50 μl PBS. Ear measurements were taken before challenge and 24 hours after challenge. Response to DNFB was expressed as the difference between the two ear measurements. […] Ear responses in BALB/c mice were augmented following ribavirin (RIB) treatment but were impaired in ribavirin-treated C57BL/6 mice.

B7-1 [6] = assay: B7-1 mRNA (RT-PCR) in human PBMCs with B7-inducing cytokines; format: cell-based
From the text: as §1

IL-10 = IL-10 levels in human PBMCs with B7-inducing cytokines; format: cell-based
From the text: as §1

TNFα = TNFα levels in human PBMCs with B7-inducing cytokines; format: cell-based
From the text: as §1

[7] = 24 hour incubation with B7-inducing cytokines, FIG. 7 right hand panel (B)
[8] = 24 hour incubation with IFNα, IFNβ or TNFα, FIG. 7 left panel (A)
[9] = BALB/c mice of the CHS experiment
[10] = C57BL/6 mice of the CHS experiment

Structure (SMILES): NC(=O)c1ncn([C@@H]2O[C@H](CO)[C@@H](O)[C@H]2O)n1 [ribavirin, 1-β-D-Ribofuranosyl-1,2,4-Triazole-3-Carboxamide]
- B7-2 expression (B7-2 [1]; [7]): increased B7-2 expression
- B7-2 expression (B7-2 [1]; [8]): decreased
- IFNα-induced B7-2 expression (B7-2 [2]; BALB/c splenocytes, FIG. 6 top panel): augmented
- IFNα-induced B7-2 expression (B7-2 [2]; C57BL/6 splenocytes, FIG. 6 bottom panel): unaffected
- B7-2 mRNA expression in lymph node cells (B7-2 mRNA; [9]): augmented
- B7-2 mRNA expression in lymph node cells (B7-2 mRNA; [10]): unaffected
- B7-1 mRNA expression in lymph node cells (B7-1 mRNA; [9]): unaffected
- B7-1 mRNA expression in lymph node cells (B7-1 mRNA; [10]): enhanced
- IFNα-induced B7-1 expression (B7-1 [3]): enhanced
- B7-1 expression (mean channel fluorescence) (B7-1 [4]): enhanced B7-1 expression
- B7-2 expression (mean channel fluorescence) (B7-2 [5]): enhanced B7-2 expression
- Inflammatory ear response to DNFB (BALB/c and C57BL/6 mice; BALB/c mice): augmented
- Inflammatory ear response to DNFB (BALB/c and C57BL/6 mice; C57BL/6 mice): impaired
- B7-1 expression (B7-1 [6]; [7]): decreased B7-1 expression
- B7-1 mRNA expression (B7-1 [6]; [8]): increased
- IL-10 levels (IL-10; [7]): dropped
- IL-10 (IL-10; [8]): concomitant increase
- TNFα levels (TNFα; [7]): increased
- TNFα (TNFα; [8]): concomitant decrease
